The assay concerns Ceratitis capitata flies. Kind of assay: Insecticidal action in the dark: fly survival after porphyrin bait. It counts as in vivo. Conditions: dark, fed 24 h, survival 12 h after change to porphyrin-free bait. On the procedure: For comparison, data obtained with two conventional porphyrins (as those described in WO 97/29637) offered to the insects for 24 h at a 3.0 and 8.1 μmolar concentration in the same bait are also shown. In all cases, the survival was determined 12 hours after changing food supply from a porphyrin-containing to a porphyrin-free bait. […] These flies were then used in the various experimental sessions. […] The number of survivors was evaluated 12 h after switching from administration of a porphyrin-containing bait to a porphyrin-free bait. In none of the experiments was mortality or any apparent toxic effect observed in control flies (flies not fed with porphyrin, see survival at 0 μM porphyrin concentration).

Take `CCCCCCCCCCCCCC[n+]1ccc(-c2c3nc(c(-c4cc[n+](C)cc4)c4ccc([nH]4)c(-c4cc[n+](C)cc4)c4nc(c(-c5cc[n+](C)cc5)c5ccc2[nH]5)C=C4)C=C3)cc1` [C14, meso[tri(N-methyl-pyridyl), mono(N-tetradecyl-pyridyl)]porphine]: the “Survival (% of control untreated flies)” value by setting is: (0.75 μM in bait) 100 % of control untreated flies; (1.25 μM in bait) 51 % of control untreated flies; (2.10 μM in bait) 38 % of control untreated flies; (3.00 μM in bait) 21 % of control untreated flies; (5.00 μM in bait) 14 % of control untreated flies; (8.10 μM in bait) 9 % of control untreated flies.

Consider `CCCCCCCCCCCCCCCCCC[n+]1ccc(-c2c3nc(c(-c4cc[n+](C)cc4)c4ccc([nH]4)c(-c4cc[n+](C)cc4)c4nc(c(-c5cc[n+](C)cc5)c5ccc2[nH]5)C=C4)C=C3)cc1` [C18, meso[tri(N-methyl-pyridyl), mono(N-octadecyl-pyridyl)]porphine], for which the “Survival (% of control untreated flies)” value by setting is: (0.75 μM in bait) 100 % of control untreated flies; (1.25 μM in bait) 42 % of control untreated flies; (2.10 μM in bait) 29 % of control untreated flies; (3.00 μM in bait) 12 % of control untreated flies; (5.00 μM in bait) 2 % of control untreated flies; (8.10 μM in bait) 0 % of control untreated flies.

Take `CCCCCCCCCCCC[n+]1ccc(-c2c3nc(c(-c4cc[n+](C)cc4)c4ccc([nH]4)c(-c4cc[n+](C)cc4)c4nc(c(-c5cc[n+](C)cc5)c5ccc2[nH]5)C=C4)C=C3)cc1` [C12, meso[tri(N-methyl-pyridyl), mono(N-dodecyl-pyridyl)]porphine]: the “Survival (% of control untreated flies)” value is 100 % of control untreated flies (0.75 μM in bait); 73 % of control untreated flies (1.25 μM in bait); 58 % of control untreated flies (2.10 μM in bait); 42 % of control untreated flies (3.00 μM in bait); 38 % of control untreated flies (5.00 μM in bait); 35 % of control untreated flies (8.10 μM in bait).

(Values after patent publication US7384927B2, “Alkylated porphyrins as pesticides acting both in the presence and absence of light” (priority 2003, dated 2008).)
